# Test results as given in US10385034B2, “Flavonoid IL-17A inhibitors” (THE CLEVELAND CLINIC FOUNDATION, priority 2014, dated 2019).
# Legend:
# Th17-mediated EAE = assay: Adoptive transfer of EAE by Th17; assay type: in vivo, mouse
# Experimental: Adoptive transfer of EAE by Th17. To prepare MOG-specific polarized Th17 cell populations, drain lymph node cells were prepared from 10-week WT C57BL/6 female mice immunized with MOG 35-55 at day 10 postimmunization. Cells were cultured for 5 days with MOG 35-55 at a concentration of […] under Th17 cell (20 ng/ml IL-23) polarizing condition. For induction of Th17-mediated EAE, 10-week WT C57BL/6J female mice were injected i.p. with 3.0×10^7 polarized MOG 35-55-specific Th17 cells/mouse with or without A18 (30 μg per mouse) 4 h after 500 Rad sublethal irradiation. A18 (30 μg per mouse) was continuously administered i.p. to the treated mice every other day after Th17 injection. At the peak of disease, the mice were sacrificed and perfused with PBS. The spinal cords were fixed in 10% formalin for staining with H&E. The Brains were removed for isolation of infiltrating cells.
# Isolation and analysis of inflammatory cells from brain. Brains were homogenized in ice-cold tissue grinders and filtered through a […] cell strainer, and the cells were collected by centrifugation at 400 g for 5 min at 4° C. Cells were resuspended in 10 ml of 30% Percoll (Amersham Bioscience) and centrifuge onto a 70% Percoll cushion in 15 ml tubes at 800 g for 30 min. Cells at the 30%-70% interface were collected and were subjected to flow cytometry. Fluorescence-conjugated CD4, CD8, CD45, Ly6G1 antibodies and isotype controls were purchased from BD Biosciences. F4/80 was obtained from Serotech.
# (§1) Real-time PCR. Total RNA was extracted from spinal cords and cultured astrocytes with TRIzol (Invitrogen) according to the manufacturer's instructions. All gene expression results are expressed as arbitrary units relative to expression of the gene encoding beta-actin.
# A549 cells = assay: IL-17A-induced CXCL1 (Groα) production, ELISA; assay type: cell-based, human; details: A549, IL-17 100 ng/ml, 24 h
# Excerpt: Reagents, cell culture and mice. Purified proteins of human IL-17A, human IL-17E (IL-25), human IL-17RA-Fc (extracellular domain 1-322 AA fused with Fc region of human IgG1 at the C-terminus), human IL-17RB-Fc (extracellular domain 1-289 AA fused with Fc region of human IgG1 at the C-terminus), human horseradish peroxidase (HRP)-conjugated IgG Fc secondary antibody were purchased from Sino Biological Inc. Human and mouse IL-17A and mouse IL-23 used for cell culture and animal injection were purchased from R&D Systems. Human mammary epithelial cells were maintained in Medium 171 plus mammary epithelial growth supplement (MEGS) purchased from Invitrogen, which contain bovine pituitary extract (BPE) (0.4% v/v), recombinant human insulin-like growth factor-I (1 μg/ml), hydrocortisone (0.5 μg/ml) and human epidermal growth factor (3 ng/ml). A549 cells were maintained in RPMI supplemented with 10% FCS and 100 U/ml penicillin and 100 μg/ml streptomycin. All mice were obtained from Jackson laboratory.
# ELISA. Groα and IL-17A levels were assayed by ELISA kits (R&D systems) according to the manufacturer's instruction.
# [1] = test system: IL-17A-induced intraperineal neutrophilia; assay: Peritoneal administration of IL-17A (neutrophilia); assay type: in vivo; details: BALB/c mice, A18 30 μg per mouse i.p. co-injected with IL-17A 1 μg, 6 h
# Experimental: Peritoneal administration of IL-17A. Eight-week WT BALB/cJ female mice were subjected to intraperitoneal injection (i.p.) of PBS, 1 μg of IL-17A with or without A18 (30 μg per mouse). The peritoneal cavity was lavaged with 5 ml ice-cold PBS at 6 h post treatment. Peritoneal cells were counted and quantified by differential cell counting.
# [2] = test system: IL-17A-induced epidermal hyperplasia; assay: Intradermal injection of IL-17A (skin epidermal hyperplasia); assay type: in vivo, mouse
# Experimental: Intradermal injection of IL-17A. The ears of 8-week WT C57BL/6 female mice were injected intradermally with 20 μl PBS, either alone or containing 500 ng recombinant mouse IL-17A with or without A18 (30 μg per mouse). After 7 days after injection, the mice ears were fixed in 10% formalin in PBS and stained with hematoxylin and eosin (H&E). Epidermal thickness was quantified by Image J.
# as §1
# IL-17RA ECD = biological target: T1, IL-17RA ECD (Homo sapiens, UniProt Q96F46); assay: Surface plasmon resonance (Biacore) binding to immobilized IL-17RA; details: SPR, IL-17RA immobilized on CM5 chip
# T1 construct: using purified the extracellular domain (ECD) of human IL-17RA
# Experimental: Surface plasmon resonance (SPR). Binding of A18 to IL-17RA was conducted on Biacore T100 instrument. Purified IL-17RA was immobilized on CM5 sensor chip using amine coupling kit (GE healthcare). A18 of different concentrations were flown over the chip in PBSPP+ buffer (20 mM Phosphate, 2.7 mM KCl, 137 mM NaCl and 0.05% P20, pH 7.4). The chip was regenerated with 2M GnHCl. Binding KD was determined by Biaevaluation software.
# [3] = biological target: T2, recombinant human IL-17RA ectodomain (Homo sapiens, UniProt Q96F46); assay: Fluorescence binding measurement (fluorescence quenching); details: fluorescence-based method, IL-17RA in solution, 1 uM
# T2 construct: The recombinant human IL-17RA ectodomain was expressed in baculovirus-infected Sf-9 cells; made in house; host or cells: baculovirus-infected Sf-9 cells
# Experimental: Fluorescence binding measurement. The recombinant human IL-17RA ectodomain was expressed in baculovirus-infected Sf-9 cells and purified as described previously. Liu et al., Nat Commun 4, 1888 (2013). The compound A18 or A0 was obtained from NCI. The purified IL-17RA protein (final concentration at 1 uM) was mixed with various concentrations of compound A0 in the solution consisting of 20 mM Tris, pH 7.5, 150 mM NaCl, and 5% DMSO in a 96-well black flat-bottom microplate (Greiner Bio-One). The reaction mixtures were incubated at room temperature at 120 rpm for 10 min, and fluorescence intensity was measured on a 2300 EnSpire Multimode Plate Reader (PerkinElmer) with excitation (265 nm) and emission (336 nm) wavelengths for A18 or with excitation (240 nm) and emission (337 nm) wavelengths for A0. The fluorescence signal (relative fluorescence intensity) was obtained by subtracting the background fluorescence of buffer and compound A0, and plotted as a function of the concentration of compound A0. The fluorescence quenching was observed as a consequence of the protein-ligand interaction at dose-dependent concentrations of compound A0, and the binding constant of compound A0 to IL-17RA was estimated by one-site total binding fit model (GraphPad Prism).
# [4] = A18 30 μg per mouse i.p. every other day
# T1 sequence (Q96F46 33-320 limits assumed): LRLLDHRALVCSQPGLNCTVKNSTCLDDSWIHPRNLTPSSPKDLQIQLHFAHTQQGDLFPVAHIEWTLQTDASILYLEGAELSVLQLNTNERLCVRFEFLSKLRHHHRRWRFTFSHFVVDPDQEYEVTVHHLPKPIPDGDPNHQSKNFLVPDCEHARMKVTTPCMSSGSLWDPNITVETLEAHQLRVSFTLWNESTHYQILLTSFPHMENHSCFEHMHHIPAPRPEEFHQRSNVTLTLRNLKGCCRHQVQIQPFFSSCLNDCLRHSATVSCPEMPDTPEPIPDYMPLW
# T2 sequence (Q96F46 33-320 limits assumed): as above
structure (smiles),measurement,setting,value
"Oc1cc(O)c2cc(O)c(-c3ccc(O)c(O)c3)[o+]c2c1.[Cl-] [A18, 2-(3,4-Dihydroxyphenyl)-3,5,7-trihydroxy-1-benzopyrylium chloride]",EAE disease severity,Th17-mediated EAE; [4],attenuated
same,"Expression of IL-17-responsive inflammatory genes (CXCL1, IL6, GMCSF, Ccl20) in spinal cords",Th17-mediated EAE; [4],greatly reduced
same,Onset of EAE,Th17-mediated EAE; [4],substantially delayed
same,Infiltrated cells in spinal cords,Th17-mediated EAE; H&E staining,less infiltrated cells
same,"Infiltration of CD4+, CD8+ T cells and F4/80+ macrophages","Th17-mediated EAE; brain, flow cytometry",did not affect
same,Recruitment of Ly6G+ neutrophils,"Th17-mediated EAE; brain, flow cytometry",substantially reduced
same,IL-17A-mediated CXCL1 production,A549 cells,greatly inhibited
same,IL-17A-induced intraperineal neutrophilia,[1],greatly attenuated
same,IL-17A-dependent epidermal hyperplasia,"[2]; C57Bl/6 ears, IL-17A 500 ng with A18 30 μg per mouse intradermal, 6 consecutive days",greatly reduced
same,"Levels of C-myc, Pled and Steap4 in IL-17A-treated ears",[2]; RT-PCR,attenuated
same,Kd,IL-17RA ECD,0.225 µM
same,Kd,[3],~5 µM
